“Also recorded” adds a separate entry of the source. Like-named read-outs stand apart in the source and are kept apart here.
What was measured:
cancer stem cells CSCs = assay: Cancer stem cell survival; format: cell-based
Description: In another example, JM peptides can selectively target cancer stem cells CSCs. JM2 specific interaction with microtubules concomitantly with a loss of Cx43/microtubule complexing and a decrease in cell-cell communication in CSCs derived from patient tumors was confirmed. […] Current research includes the development of JM2-loaded biodegradable nanoparticles for JM2 sustained delivery in preparation for future clinical trials. In sum, the Cx43 mimetic peptide JM2 represents a novel and potent therapeutic opportunity to target chemoresistant CSCs in cancer treatment. This was described in (Lamouille et al., targeting glioblastoma cancer stem cells with a novel Connexin43 mimetic peptide [abstract]. In: Proceedings of the American Association for Cancer Research Annual Meeting 2017; 2017 Apr. 1-5; Washington, DC. Philadelphia (PA): AACR; Cancer Res 2017;77 (13 Suppl): Abstract nr 4765. doi: 10.1158/1538-7445.AM2017-4765), which is incorporated by reference. Further results can indicate that cancer stem cells derived from other cancers respond similarly to JM peptides. […]

[1] = system: ARPE19 cell (immortalized human RPE cells) monolayers; conditions: pre-treatment, cited from earlier work
implants = assay: Inflammatory infiltrate at implants, myeloperoxidase stain; format: in vivo; conditions: 24 hour time point
Description: In attempting to quantify the neutrophil infiltrate using a myeloperoxidase stain, the inventors observed that some of the cells stained darker than others. Upon further investigation, these cells were not neutrophils as but rather were macrophages.

[2] = system: 4 mm long incisional skin injury; conditions: 60 μM in 20% pluronic gel, cited from earlier work
[3] = aqueous solutions; cited from earlier work
Cx43 Y313-A348 peptide [4] = assay: SPR of captured aCT1 with Cx43 Y313-A348 peptide; format: binding; conditions: disulfide linked Cx43 Y313-A348 (25 µM)
Protocol: (§1) FIGS. 28A-28D. […] (FIG. 28B) Schematic representation of the Cx43 Y313-A348 peptide synthesized for a binding surface surrogate 1 with linkable cysteine (Cys) on the amino terminus and CT. (FIG. 28C) Single letter amino acid sequence of Cx43 Y313-A348 peptide with predicted helix secondary structure underlined. (FIG. 28D) Surface Plasmon Resonance (SPR) analysis of substrate captured aCT1 (700-1000 RUs) binding recombinant Cx43 CT (100 µM, light grey), unlinked Cx43 Y313-A348 peptide (25 µM, black), and disulfide linked Cx43 Y313-A348 (25 µM, dark grey). […] Disulfide cross-linking Cx43 Y313-A348 into a looped conformation results in a loss of aCT1 binding, thus aCT1 interaction with this peptide requires a degree conformational flexibility. Cx43 Y313-A348 peptide can provide an assay for screening for novel Cx43 interacting drugs.
(§2) A […] peptide mimetic encompassing amino acids Y313 through A348 of the Cx43 CT was synthesized, containing the H1 and H2 a-helical regions (FIGS. 28A-28D). […] Cx43 Y313-A348 was designed to have cysteines at its NT and CT, which were used to disulfide cross-link the peptide into a cyclized conformation (FIG. 28B). […]

Cx43 Y313-A348 peptide [5] = molecular target: T1, Cx43 Y313-A348 peptide (Rattus norvegicus, UniProt P08050); assay: SPR of captured aCT1 with Cx43 Y313-A348 peptide; format: binding; conditions: unlinked Cx43 Y313-A348 peptide (25 µM)
T1 construct: made in house; host or cells: chemical synthesis
Protocol: as §1, §2

ZO-1 PDZ2 = molecular target: T2, ZO-1 PDZ2 (Homo sapiens, UniProt Q07157); assay: EDC cross-linking to GST fusion ZO-1 PDZ domains; format: binding; conditions: 5, 25 and 50 μM
T2 construct: the second of the three PDZ (PDZ2) domains of ZO-1; made in house; host or cells: E. coli BL21
T2 sequence (Q07157 186-264 limits assumed): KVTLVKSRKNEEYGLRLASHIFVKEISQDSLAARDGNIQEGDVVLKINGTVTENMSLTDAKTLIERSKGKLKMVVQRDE
Protocol: To characterize the interaction between the Cx43 CT substrate and peptides, the in vitro kinase assay was performed as above with modification and the constituents then subjected to a cross-linking reaction. The assay buffer used was 20 mM 3-(N-morpholino) propanesulfonic acid (MOPS), pH 7.2. All other reagents present in the kinase reaction were maintained as described above. The reaction was allowed to proceed at 37° C. for 15 minutes. Afterwards, the carbodiimide crosslinker 1-Ethyl-3-(3-dimethylaminopropyl) carbodiimide HCl (EDC) (Thermo, 22980) was added to each solution for a final concentration of 20 mM. The solution was allowed to cross-link for one hour at room temperature. The reaction was stopped by the addition of 4×LDS loading buffer, boiled for 5 minutes and subsequently separated by PAGE. The resulting gel was stained in Coomassie brilliant blue (Sigma, B0770) for two hours and destained in a solution of 4% methanol 7% acetic acid overnight. Gel bands were subsequently excised for mass spectrometric analysis. For the direct interaction between protein and peptides, PBS, pH 7.5 was used as the coupling buffer. The protein (50 μg/ml) and peptide (25 μM) were allowed to react at room temperature for one hour before EDAC was added to the reaction mixture. The reaction was Western blotted for Cx43, GST or NeutroAvidin.

[6] = system: choroidal neovascularization; conditions: mouse, in vivo; cited from earlier work
silicone implants = conditions: days 1, 2, 3, 14, and 28; cited from earlier work
[7] = system: Human umbilical vein endothelial cells (HUVECs); conditions: cited from earlier work

T1 sequence (P08050 with tags, fused parts or gaps): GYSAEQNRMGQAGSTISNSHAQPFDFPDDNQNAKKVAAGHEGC

VFFKGVKDRVKGRSD [JM2]
viability and self-renewal of colon cancer stem cells (cancer stem cells CSCs): effectively reduced the viability and self-renewal of cancer stem cells from patients with colon cancer

RQPKIWFPNRRKPWKKRPRPDDLEI [alpha CT1]
VEGF-induced deterioration of TER [1]: prevent VEGF-induced deterioration of TER
VEGF-induced deterioration of TER ([1]; listed as ACTI): blocked by pre-treating the cells with the ACTI peptide
type of inflammatory infiltrate (implants): the primary inflammatory infiltrate was macrophages
appearance of incisional injury ([2]; at 7 days): smoother and less scarred appearance
appearance of incisional injury ([2]; by 48 hours): significantly more closed, less inflamed, less swollen
period of slow release of detectable levels of peptide [3]: at least 7 days
SPR interaction (Cx43 Y313-A348 peptide [4]): complete loss of aCT1 binding
SPR interaction (Cx43 Y313-A348 peptide [5]): levels of interaction with aCT1 comparable to the full Cx43 CT sequence
interaction with ZO-1 PDZ2 (ZO-1 PDZ2): selectivity of alpha CT1 for ZO-1 PDZ2
CNV injury spread and retinal function (ERG) [6]: reduced CNV injury spread and improved retinal function
wound-healing and foreign body responses (silicone implants): attenuating neutrophil infiltration, increasing vascularity of the capsule tissue, reducing type I collagen deposition around the implant, and reducing the continued presence of contractile myofibroblasts
protection from oxidative stress ([7]; H2O2): significantly protects endothelial cells from H2O2
cellular injury ([7]; UW solution containing 100 μM): significantly reduced cellular injury as compared to untreated controls
IL-8 secretion and MHC II expression ([7]; UW solution supplemented with peptide): significant reduction in IL-8 secretion and MHC Class II expression
TEER and IL-8 secretion post reperfusion ([7]; UW+ACT1 solution): improved TEER and reduced IL-8 secretion

RQPKIWFPNRRKPWKKRPRPDDLE [alpha CT1-I]
interaction with ZO-1 PDZ2 (ZO-1 PDZ2): incompetent to interact; also recorded: abrogates interaction with ZO-1 PDZ2

— patent US20250221936A1, “ENGINEERED HEMICHANNELS, ENGINEERED VESICLES, AND USES THEREOF” (VIRGINIA TECH INTELLECTUAL PROPERTIES, INC., priority 2018, published 2025)
